Reference: the supplement of paper PMC10307832

How the values were obtained:
Test in all cases: relative viability (nuclei count vs DMSO), 5 days (fraction); higher = more cells survive
Irinotecan + OSI-027 = compound: CCc1c2c(nc3ccc(OC(=O)N4CCC(N5CCCCC5)CC4)cc13)-c1cc3c(c(=O)n1C2)COC(=O)[C@]3(O)CC [Irinotecan] + COc1cccc2cc(-c3nc([C@H]4CC[C@H](C(=O)O)CC4)n4ncnc(N)c34)[nH]c12 [OSI-027] (partner 0.5 µM)
Outline: (§1)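 A single step with final 0.05% Triton X-100, 1% formaldehyde and 1 ug/ml Hoechst fixed the cells and stained nuclei 5 days after treatment. Lung cancer cell lines in 1536-well plates had been treated by pin tool the day after seeding with one drug alone or a fixed anchor-drug dose plus five library-drug doses (not always all listed) in √10 steps, and nuclei were counted on 4× images. Relative viability is the ratio of nuclei in treated wells to nuclei in vehicle wells, taken as the median of duplicate plates.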

MK-8033 + Foretinib = compound: Cn1cc(-c2cnc3ccc4ccc(CS(=O)(=O)NCc5ccccn5)cc4c(=O)c3c2)cn1 [MK-8033] + COc1cc2c(Oc3ccc(NC(=O)C4(C(=O)Nc5ccc(F)cc5)CC4)cc3F)ccnc2cc1OCCCN1CCOCC1 [Foretinib] (partner 0.25 µM)
Outline: as §1

Irinotecan + Pemetrexed = compound: CCc1c2c(nc3ccc(OC(=O)N4CCC(N5CCCCC5)CC4)cc13)-c1cc3c(c(=O)n1C2)COC(=O)[C@]3(O)CC [Irinotecan] + Nc1nc2[nH]cc(CCc3ccc(C(=O)N[C@@H](CCC(=O)O)C(=O)O)cc3)c2c(=O)[nH]1 [Pemetrexed] (partner 0.2 µM)
Outline: as §1

MK-8033 + Phenformin = compound: Cn1cc(-c2cnc3ccc4ccc(CS(=O)(=O)NCc5ccccn5)cc4c(=O)c3c2)cn1 [MK-8033] + N=C(N)NC(=N)NCCc1ccccc1 [Phenformin] (partner 250 µM)
Outline: as §1

How did the relative viability (Irinotecan + OSI-027; first compound 0.6325 µM) turn out when UMC-11 was run?
The relative viability was 0.461.

And the relative viability (Irinotecan + OSI-027; first compound 2 µM)?
Its relative viability is 0.475.

And the relative viability (Irinotecan + OSI-027; first compound 6.325 µM)?
The relative viability was 0.279.

What about the relative viability (Irinotecan + OSI-027; first compound 20 µM) of the same cell line?
Its relative viability is 0.155.

And the relative viability (MK-8033 + Foretinib; first compound 0.02 µM)?
Its relative viability is 1.08.

And the relative viability (MK-8033 + Foretinib; first compound 0.06325 µM)?
The relative viability was 1.04.

What about the relative viability (MK-8033 + Foretinib; first compound 0.2 µM) of the same cell line?
The relative viability was 0.989.

What about the relative viability (MK-8033 + Foretinib; first compound 2 µM) of the same cell line?
Its relative viability is 1.08.

What about the relative viability (Irinotecan + Pemetrexed; first compound 0.6325 µM) of the same cell line?
The relative viability was 0.46.

What about the relative viability (Irinotecan + Pemetrexed; first compound 2 µM) of the same cell line?
The relative viability was 0.436.

And the relative viability (Irinotecan + Pemetrexed; first compound 6.325 µM)?
The relative viability was 0.288.

What about the relative viability (Irinotecan + Pemetrexed; first compound 20 µM) of the same cell line?
Its relative viability is 0.228.

What about the relative viability (MK-8033 + Phenformin; first compound 0.02 µM) of the same cell line?
Its relative viability is 0.323.

What about the relative viability (MK-8033 + Phenformin; first compound 0.06325 µM) of the same cell line?
Its relative viability is 0.258.

And the relative viability (MK-8033 + Phenformin; first compound 0.2 µM)?
The relative viability was 0.312.

What about the relative viability (MK-8033 + Phenformin; first compound 2 µM) of the same cell line?
Its relative viability is 0.266.
